Laboratory results reported in ChEMBL document CHEMBL1149799, “Bioactive peroxides as potential therapeutic agents” (Eur J Med Chem, 2008).
≈ marks a conversion by molar mass, not a printed value.

How the values were obtained:
[1] = system: HT-29; assay: Cytotoxicity against human HT29 cells; type: functional, cell-based; settings: for IC50 / EC50: Homo sapiens, HT-29; for EC50: read-out: ED50 (the source's name)
[2] = system: P388; assay: Cytotoxicity against mouse P388 cells; type: functional, cell-based; settings: for IC50 / EC50: Mus musculus, P388; for EC50: read-out: ED50 (the source's name)
[3] = system: A549; assay: Cytotoxicity against human A549 cells; type: functional, cell-based; settings: for IC50 / EC50: Homo sapiens, A549; for EC50: read-out: ED50 (the source's name)
[4] = Cytotoxicity against mouse Ehrlich Ascites carcinoma by trypan blue exclusion assay; type: functional
[5] = system: KB; assay: Cytotoxicity against human KB cells; type: functional, cell-based; settings: for EC50: read-out: ED50 (the source's name)
[6] = system: LoVo; assay: Cytotoxicity against human LoVo cells; type: functional
[7] = system: L1210; assay: Cytotoxicity against mouse L1210 cells; type: functional, cell-based; settings: for IC50: Mus musculus, L1210
[8] = system: DU-145; assay: Cytotoxicity against human DU145 cells; type: functional, cell-based; settings: Homo sapiens, DU-145

Compound: C=C(CCC[C@@]1(C)CC[C@H]([C@H](C)C(=O)OC)OO1)CCC1(O)C(=C)CCCC1(C)C (stereo not given in full) [TASNEMOXIDE C]
- IC50 [1]: > 1 µg/mL
- IC50 [2]: > 1 µg/mL
- IC50 [3]: > 1 µg/mL

Compound: CC(=O)[C@@H]1CC[C@@H](C)[C@@H]2CC[C@]3(C)OO[C@@]12C(=O)O3
- IC50 [4]: > 175 µM
- IC80 [4]: > 175 µM

Compound: C/C=C/C=C/CCCCCCCCCCCCC[C@]1(OC)C=C[C@@H](CC(=O)OC)OO1 [XESTIN A]
- IC50 [2]: 0.3 µg/mL (≈ 0.687 µM)

Compound: C[C@H](C/C=C/C(C)(C)OO)[C@H]1CC[C@H]2[C@@H]3CC(=O)C4=CC(=O)CC[C@]4(C)[C@H]3CC[C@]12C
- EC50 [1]: 1.48 µg/mL (≈ 3.45 µM)
- EC50 [2]: 0.53 µg/mL (≈ 1.24 µM)
- EC50 ([5]; Homo sapiens, KB): 1.15 µg/mL (≈ 2.68 µM)
- EC50 [3]: 0.88 µg/mL (≈ 2.05 µM)

Compound: C/C=C/C=C/CCCCCCCCCCCCC[C@@]1(OC)C=C[C@@H](CC(=O)OC)OO1 [XESTIN B]
- IC50 [2]: 3 µg/mL (≈ 6.87 µM)

Compound: C/C=C/C=C/CCCCCCCCCCC[C@]1(OC)C=C[C@H](CC(=O)OC)OO1
- EC50 [2]: > 10 µg/mL

Compound: CC(CC/C=C/CC/C=C/c1ccccc1)C[C@]1(C)C[C@@](C)(CC(=O)O)OO1 (stereo not given in full) [PLAKINIC ACID D]
- MIC [6]: 0.001 µg/mL (≈ 0.00259 µM)
- MIC ([5]; Homo sapiens): 0.001 µg/mL (≈ 0.00259 µM)
- IC50 [7]: 0.026 µg/mL (≈ 0.0673 µM)

Compound: COC(=O)C[C@]1(C)C[C@@](C)(CC(C)CC/C=C/CC/C=C/c2ccccc2)OO1 (stereo not given in full)
- MIC [6]: 0.1 µg/mL (≈ 0.25 µM)
- MIC ([5]; Homo sapiens): 1 µg/mL (≈ 2.5 µM)
- IC50 [7]: 0.0043 µg/mL (≈ 0.0107 µM)

Compound: CC(CCCC/C=C/CC/C=C\c1ccccc1)C[C@]1(C)C[C@@](C)(CC(=O)O)OO1 (stereo not given in full) [PLAKINIC ACID C]
- MIC [6]: 0.1 µg/mL (≈ 0.241 µM)
- MIC ([5]; Homo sapiens): 0.01 µg/mL (≈ 0.0241 µM)
- IC50 [7]: 0.017 µg/mL (≈ 0.041 µM)

Compound: CC1=C(CCC(C)(O)/C=C/C[C@@]2(C)CC[C@H]([C@H](C)C(=O)O)OO2)C(C)(C)CCC1 (stereo not given in full) [TASNEMOXIDE A]
- IC50 [1]: > 1 µg/mL
- IC50 [2]: > 1 µg/mL
- IC50 [3]: > 1 µg/mL

Compound: COC(=O)[C@@H](C)[C@@H]1CC[C@](C)(CCC(=O)C(C)(C)CCCC(C)=O)OO1 [DIACARPEROXIDE B]
- IC50 [1]: > 1 µg/mL
- IC50 [2]: > 1 µg/mL
- IC50 [3]: > 1 µg/mL

Compound: C=C(C)C(CC[C@@H](C)[C@H]1CC[C@H]2[C@@H]3CC=C4C[C@@H](O)CC[C@]4(C)[C@H]3CC[C@]12C)OO (stereo not given in full)
- EC50 [1]: 0.43 µg/mL (≈ 1.03 µM)
- EC50 [2]: 0.26 µg/mL (≈ 0.624 µM)
- EC50 ([5]; Homo sapiens, KB): 0.33 µg/mL (≈ 0.792 µM)
- EC50 [3]: 0.64 µg/mL (≈ 1.54 µM)

Compound: CCCCCCCC/C=C/C(=O)O[C@@H]1[C@@H](C)[C@@]2(O)[C@H]([C@@H]3C(C)(C)[C@]13OC(C)=O)[C@@H](OO)C(CO)=C[C@]1(O)C(=O)C(C)=C[C@@H]21 [OSTODIN]
- EC50 [2]: ≤ 4000 µg/mL
- EC50 ([5]; Homo sapiens, KB): ≤ 4000 µg/mL

Compound: COC(=O)C[C@@]1(C)C[C@](C)(CC(C)CCCCCCCCc2ccccc2)OO1 (stereo not given in full) [EPIPLAKINIC ACID E]
- IC50 [2]: 2 µg/mL (≈ 4.94 µM)
- IC50 [3]: 2.5 µg/mL (≈ 6.18 µM)

Compound: C[C@@H]1CC[C@@H]2[C@]34OO[C@@](C)(CC[C@@H]13)O[C@H]4OC(=O)[C@@]2(C)O
- IC50 [4]: > 125 µM
- IC80 [4]: > 125 µM

Compound: C=C1C(=O)O[C@H]2C[C@](C)(O)CCC[C@](C)(OO)C/C=C/[C@@]3(C)O[C@H]3C[C@@H]12
- IC50 [2]: 0.1 µg/mL (≈ 0.273 µM)

Compound: C=C1CCCC(C)(C)C1(O)CC[C@@]1(C)CC[C@@H]([C@H](C)C(=O)OC)OO1 (stereo not given in full) [AIKUPIKOXIDE B]
- IC50 [1]: > 1 µg/mL
- IC50 [2]: > 1 µg/mL
- IC50 [3]: > 1 µg/mL

Compound: C=CC(CC[C@@H](C)[C@H]1CC[C@H]2[C@@H]3C[C@@H](O)C4=CC(=O)CC[C@]4(C)[C@H]3CC[C@]12C)(OO)C(C)C (stereo not given in full)
- EC50 [1]: 0.43 µg/mL (≈ 0.937 µM)
- EC50 [2]: 0.4 µg/mL (≈ 0.872 µM)
- EC50 ([5]; Homo sapiens, KB): 1.8 µg/mL (≈ 3.92 µM)
- EC50 [3]: 0.64 µg/mL (≈ 1.4 µM)

Compound: C=C1CC[C@H](OO)C(=C)CCC2=C(C(C)C)C(=O)C[C@]2(C)CC1=O
- EC50 [1]: 0.31 µg/mL (≈ 0.932 µM)
- EC50 [2]: 0.052 µg/mL (≈ 0.156 µM)
- EC50 [3]: 0.56 µg/mL (≈ 1.68 µM)

Compound: C=C(CCC1=C(C)CCCC1(C)C)C(O)CC[C@@]1(C)CC[C@H]([C@H](C)C(=O)O)OO1 (stereo not given in full) [TASNEMOXIDE B]
- IC50 [1]: > 1 µg/mL
- IC50 [2]: > 1 µg/mL
- IC50 [3]: > 1 µg/mL

Compound: C=C1C(=O)O[C@H]2[C@H]1[C@H](OC(C)=O)CC(=C)[C@H](OO)CC[C@@]1(C)O[C@H]21 [PEROXYFEROLIDE]
- EC50 ([5]; Homo sapiens, KB): 0.29 µg/mL (≈ 0.857 µM)

Compound: C=C(C)C(CC[C@@H](C)[C@H]1CC[C@H]2[C@@H]3C[C@@H](O)C4=CC(=O)CC[C@]4(C)[C@H]3CC[C@]12C)OO (stereo not given in full)
- EC50 [1]: 0.47 µg/mL (≈ 1.09 µM)
- EC50 [2]: 0.22 µg/mL (≈ 0.511 µM)
- EC50 ([5]; Homo sapiens, KB): 0.79 µg/mL (≈ 1.83 µM)
- EC50 [3]: 0.58 µg/mL (≈ 1.35 µM)

Compound: C=C(C)C(CC[C@@H](C)[C@H]1CC[C@H]2[C@@H]3CC(=O)C4=CC(=O)CC[C@]4(C)[C@H]3CC[C@]12C)OO (stereo not given in full)
- EC50 [1]: 1.48 µg/mL (≈ 3.45 µM)
- EC50 [2]: 0.53 µg/mL (≈ 1.24 µM)
- EC50 ([5]; Homo sapiens, KB): 1.15 µg/mL (≈ 2.68 µM)
- EC50 [3]: 0.88 µg/mL (≈ 2.05 µM)

Compound: CC(=O)CCCC(C)(C)C(=O)CC/C(C)=C/CC[C@@]1(C)CC[C@H]([C@H](C)C(=O)O)OO1 [AIKUPIKOXIDE A]
- IC50 [1]: > 1 µg/mL
- IC50 [2]: > 1 µg/mL
- IC50 [3]: > 1 µg/mL

Compound: C/C1=C\CC[C@]2(C)O[C@H]([C@@H]3OC(=O)[C@]4(OO)CCO[C@@H]2C[C@H]34)[C@H](C)CCC1 [PLANAXOOL]
- IC100 [7]: 2.4 µg/mL

Compound: C=C(CCCC(C)(C)O)C(=O)CC[C@@]1(C)CC[C@@H]([C@H](C)C(=O)OC)OO1 [AIKUPIKOXIDE D]
- IC50 [1]: > 1 µg/mL
- IC50 [2]: > 1 µg/mL
- IC50 [3]: > 1 µg/mL

Compound: CC(C)(O)/C=C/C[C@@](C)(O)[C@H]1CC[C@@](C)([C@H]2CC[C@H]([C@]3(C)CC[C@H]([C@](C)(O)C/C=C/C(C)(C)OO)O3)O2)O1
- IC50 ([5]; Homo sapiens, KB): 5.3 µg/mL (≈ 9.8 µM)

Compound: CC(=O)[C@@H]1CC[C@@H](C)[C@@H]2CC[C@]3(C)OO[C@@]12[C@H](OC=O)O3
- IC50 [4]: 91 µM
- IC80 [4]: 156 µM

Compound: C=CC(CC[C@@H](C)[C@H]1CC[C@H]2[C@@H]3CC(=O)C4=CC(=O)CC[C@]4(C)[C@H]3CC[C@]12C)(OO)C(C)C (stereo not given in full)
- EC50 [1]: 1.4 µg/mL (≈ 3.07 µM)
- EC50 [2]: 0.8 µg/mL (≈ 1.75 µM)
- EC50 ([5]; Homo sapiens, KB): 4 µg/mL (≈ 8.76 µM)
- EC50 [3]: 2.5 µg/mL (≈ 5.47 µM)

Compound: CC/C=C/C(CC)CC(C)CC1(CC)C=C(CC)C(CC(=O)OC)OO1 (stereo not given)
- IC50 [2]: 0.055 µg/mL (≈ 0.15 µM)

Compound: C[C@H](C/C=C/C(C)(C)OO)[C@H]1CC[C@H]2[C@@H]3CC=C4C[C@@H](O)CC[C@]4(C)[C@H]3CC[C@]12C
- EC50 [1]: 1.27 µg/mL (≈ 3.05 µM)
- EC50 [2]: 0.22 µg/mL (≈ 0.528 µM)
- EC50 ([5]; Homo sapiens, KB): 1.41 µg/mL (≈ 3.38 µM)
- EC50 [3]: 1.68 µg/mL (≈ 4.03 µM)

Compound: COc1cccc2c1C(=O)c1c(O)c3c(c(O)c1C2=O)C[C@@](O)(C(=O)CO)C[C@@H]3O[C@H]1C[C@H](N)[C@H](O)[C@H](C)O1 [DOXORUBICIN]
- IC50 [3]: 0.002 µg/mL (≈ 0.00368 µM)

Compound: CC(C)[C@@H](C)C1CC1[C@@H](C)[C@H]1CC[C@@H]2[C@]1(C)CC[C@H]1[C@]23C=C[C@]2(C[C@@H](O)CC[C@]12C)OO3 (stereo not given in full)
- Activity [1]: 1.4 µg/mL
- Activity [2]: 0.4 µg/mL
- Activity [5]: 2.1 µg/mL
- Activity [3]: 2.7 µg/mL

Compound: C=CCCC/C=C/C=C\CCCCCCCC[C@@H]1CC[C@@H]([C@@H]2CC[C@@H](CC(=O)[O-])OO2)O1.[Na+]
- IC50 [8]: 0.1 µg/mL
- IC50 [1]: 0.1 µg/mL
- IC50 [2]: 0.01 µg/mL
- IC50 [3]: 0.1 µg/mL

Compound: CO[C@H]1O[C@@H]2O[C@@]3(C)CC[C@H]4[C@H](C)CC[C@@H]([C@H]1C)[C@@]24OO3
- IC80 [4]: > 125 µM

Compound: C[C@H](C/C=C/C(C)(C)OO)[C@H]1CC[C@H]2[C@@H]3C[C@@H](O)C4=CC(=O)CC[C@]4(C)[C@H]3CC[C@]12C
- EC50 [1]: 0.63 µg/mL (≈ 1.46 µM)
- EC50 [2]: 0.28 µg/mL (≈ 0.65 µM)
- EC50 ([5]; Homo sapiens, KB): 0.4 µg/mL (≈ 0.929 µM)
- EC50 [3]: 1 µg/mL (≈ 2.32 µM)

Compound: C[C@@H]1CCC2[C@@H](C)[C@H](O[C@@H]3O[C@H]4O[C@@]5(C)CC[C@@H]6[C@@H](C)CCC([C@@H]3C)[C@]46OO5)O[C@@H]3O[C@]4(C)CC[C@@H]1[C@@]23OO4 (stereo not given in full)
- IC50 [4]: 1.4 µM
- IC80 [4]: 2.4 µM
